Activity calls are given as the source filed them. The calls are words filed in the database; no cut-off is given here.
Tests used:
[1] = molecular target: Cytochrome P450 2C9 (Homo sapiens, UniProt P11712); experiment: Inhibition of CYP2C9 in human liver microsomes using tolbutamide as substrate preincubated for 5 mins followed by NADPH addition and measured after 30 to 60 mins by LC-MS/MS analysis; type: ADME, Microsome
[2] = molecular target: Cytochrome P450 2D6 (Homo sapiens, UniProt P10635); experiment: Inhibition of CYP2D6 in human liver microsomes using dextromethorphan as substrate preincubated for 5 mins followed by NADPH addition and measured after 30 to 60 mins by LC-MS/MS analysis; type: ADME, Microsome
[3] = molecular target: Cytochrome P450 2E1 (Homo sapiens, UniProt P05181); experiment: Inhibition of CYP2E1 in human liver microsomes using chlorzoxazone as substrate preincubated for 5 mins followed by NADPH addition and measured after 30 to 60 mins by LC-MS/MS analysis; type: ADME, Microsome
[4] = molecular target: Muscarinic acetylcholine receptor M3 (Homo sapiens) (UniProt P20309); experiment: Inhibition of muscarinic M3 receptor (unknown origin) at 1 uM relative to control
[5] = molecular target: 5-hydroxytryptamine receptor 7 (Homo sapiens) (UniProt P34969); experiment: Inhibition of 5-HT7 receptor (unknown origin) at 1 uM relative to control
[6] = molecular target: Cannabinoid receptor 2 (Homo sapiens) (UniProt P34972); experiment: Inhibition of CB2 receptor (unknown origin) at 1 uM relative to control
Cannabinoid receptor 2 (Homo sapiens), sequence (P34972 whole entry): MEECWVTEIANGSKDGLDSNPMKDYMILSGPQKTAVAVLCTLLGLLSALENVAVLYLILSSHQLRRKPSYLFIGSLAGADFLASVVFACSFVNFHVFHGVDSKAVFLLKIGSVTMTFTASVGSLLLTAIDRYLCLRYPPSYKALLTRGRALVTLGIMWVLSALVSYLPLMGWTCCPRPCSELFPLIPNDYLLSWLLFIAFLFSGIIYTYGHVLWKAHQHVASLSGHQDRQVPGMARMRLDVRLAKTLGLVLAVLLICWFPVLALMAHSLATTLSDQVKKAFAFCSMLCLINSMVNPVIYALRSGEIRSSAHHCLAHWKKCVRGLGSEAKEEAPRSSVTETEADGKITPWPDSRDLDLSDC

[7] = species on record: Homo sapiens; experiment: Inhibition of GlyRalpha1beta (unknown origin) at 1 uM relative to control
[8] = molecular target: Voltage-dependent N-type calcium channel subunit alpha-1B (Homo sapiens) (UniProt Q00975); experiment: Inhibition of Cav2.2 (unknown origin) at 1 uM relative to control
Voltage-dependent N-type calcium channel subunit alpha-1B (Homo sapiens), sequence (Q00975 whole entry, looked up, the tested form may be a part): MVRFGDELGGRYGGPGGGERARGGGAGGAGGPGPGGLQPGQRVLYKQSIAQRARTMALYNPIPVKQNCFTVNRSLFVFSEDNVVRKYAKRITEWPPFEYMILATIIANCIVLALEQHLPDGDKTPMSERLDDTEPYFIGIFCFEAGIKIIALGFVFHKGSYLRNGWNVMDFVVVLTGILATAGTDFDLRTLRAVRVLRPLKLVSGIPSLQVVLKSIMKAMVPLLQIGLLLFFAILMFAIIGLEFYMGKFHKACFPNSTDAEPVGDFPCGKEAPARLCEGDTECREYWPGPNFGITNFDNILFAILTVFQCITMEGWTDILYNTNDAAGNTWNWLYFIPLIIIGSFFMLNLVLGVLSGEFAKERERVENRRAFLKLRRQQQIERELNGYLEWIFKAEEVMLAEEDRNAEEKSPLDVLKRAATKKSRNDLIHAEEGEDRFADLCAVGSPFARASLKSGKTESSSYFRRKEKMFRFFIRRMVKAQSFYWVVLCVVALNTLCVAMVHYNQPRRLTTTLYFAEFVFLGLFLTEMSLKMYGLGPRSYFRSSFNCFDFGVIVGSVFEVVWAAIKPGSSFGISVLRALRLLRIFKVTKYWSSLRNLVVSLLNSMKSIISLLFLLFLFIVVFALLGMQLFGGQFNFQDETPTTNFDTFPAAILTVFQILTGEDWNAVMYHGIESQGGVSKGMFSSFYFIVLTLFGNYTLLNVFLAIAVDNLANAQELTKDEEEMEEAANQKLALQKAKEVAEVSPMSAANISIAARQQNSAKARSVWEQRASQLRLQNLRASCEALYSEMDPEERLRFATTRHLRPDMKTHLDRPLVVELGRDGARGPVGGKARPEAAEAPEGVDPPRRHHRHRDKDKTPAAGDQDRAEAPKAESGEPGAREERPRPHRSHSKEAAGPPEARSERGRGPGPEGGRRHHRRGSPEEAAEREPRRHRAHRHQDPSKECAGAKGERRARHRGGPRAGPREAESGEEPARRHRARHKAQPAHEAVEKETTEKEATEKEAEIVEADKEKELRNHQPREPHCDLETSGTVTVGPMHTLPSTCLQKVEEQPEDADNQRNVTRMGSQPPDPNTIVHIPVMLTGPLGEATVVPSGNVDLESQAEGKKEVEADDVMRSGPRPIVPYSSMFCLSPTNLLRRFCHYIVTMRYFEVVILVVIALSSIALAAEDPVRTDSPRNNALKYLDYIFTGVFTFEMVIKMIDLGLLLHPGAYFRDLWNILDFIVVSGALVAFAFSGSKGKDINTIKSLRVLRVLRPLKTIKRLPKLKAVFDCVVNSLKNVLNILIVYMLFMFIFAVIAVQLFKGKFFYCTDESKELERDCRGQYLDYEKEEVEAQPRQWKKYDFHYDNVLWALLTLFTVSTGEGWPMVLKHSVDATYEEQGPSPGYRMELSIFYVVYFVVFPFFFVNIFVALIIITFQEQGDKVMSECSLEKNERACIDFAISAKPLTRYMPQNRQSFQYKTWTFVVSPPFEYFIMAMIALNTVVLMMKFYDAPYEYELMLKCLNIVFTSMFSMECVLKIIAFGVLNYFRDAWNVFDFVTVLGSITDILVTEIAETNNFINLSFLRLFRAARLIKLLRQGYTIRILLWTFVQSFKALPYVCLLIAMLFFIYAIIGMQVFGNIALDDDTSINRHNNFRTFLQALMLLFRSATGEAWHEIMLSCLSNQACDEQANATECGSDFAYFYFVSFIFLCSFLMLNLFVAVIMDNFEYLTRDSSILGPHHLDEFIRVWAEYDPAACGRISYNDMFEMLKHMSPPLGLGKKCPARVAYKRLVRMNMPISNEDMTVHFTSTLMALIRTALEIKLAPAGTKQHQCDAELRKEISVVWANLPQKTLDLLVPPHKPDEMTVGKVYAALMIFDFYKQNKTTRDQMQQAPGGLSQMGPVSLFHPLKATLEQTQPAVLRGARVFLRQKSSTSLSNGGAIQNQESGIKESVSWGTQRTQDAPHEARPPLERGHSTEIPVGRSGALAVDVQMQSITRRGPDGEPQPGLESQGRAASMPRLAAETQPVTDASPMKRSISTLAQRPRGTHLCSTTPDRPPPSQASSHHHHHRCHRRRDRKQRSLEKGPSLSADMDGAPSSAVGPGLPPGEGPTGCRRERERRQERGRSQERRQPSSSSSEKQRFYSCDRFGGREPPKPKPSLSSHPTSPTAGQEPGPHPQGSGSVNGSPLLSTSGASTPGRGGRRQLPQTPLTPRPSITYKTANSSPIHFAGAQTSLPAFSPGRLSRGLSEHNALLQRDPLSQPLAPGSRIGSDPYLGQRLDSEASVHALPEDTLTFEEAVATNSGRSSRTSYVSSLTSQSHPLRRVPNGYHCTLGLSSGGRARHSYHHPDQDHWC

[9] = molecular target: Sodium-dependent noradrenaline transporter (Homo sapiens) (UniProt P23975); experiment: Inhibition of NET (unknown origin) at 1 uM relative to control
[10] = molecular target: Prostaglandin G/H synthase 2 (Homo sapiens) (UniProt P35354); experiment: Inhibition of COX2 (unknown origin) at 1 uM relative to control
[11] = molecular target: Histamine H1 receptor (Homo sapiens) (UniProt P35367); experiment: Activation of Histamine H1 receptor (unknown origin) at 1 uM relative to control
Histamine H1 receptor (Homo sapiens), sequence (P35367 whole entry): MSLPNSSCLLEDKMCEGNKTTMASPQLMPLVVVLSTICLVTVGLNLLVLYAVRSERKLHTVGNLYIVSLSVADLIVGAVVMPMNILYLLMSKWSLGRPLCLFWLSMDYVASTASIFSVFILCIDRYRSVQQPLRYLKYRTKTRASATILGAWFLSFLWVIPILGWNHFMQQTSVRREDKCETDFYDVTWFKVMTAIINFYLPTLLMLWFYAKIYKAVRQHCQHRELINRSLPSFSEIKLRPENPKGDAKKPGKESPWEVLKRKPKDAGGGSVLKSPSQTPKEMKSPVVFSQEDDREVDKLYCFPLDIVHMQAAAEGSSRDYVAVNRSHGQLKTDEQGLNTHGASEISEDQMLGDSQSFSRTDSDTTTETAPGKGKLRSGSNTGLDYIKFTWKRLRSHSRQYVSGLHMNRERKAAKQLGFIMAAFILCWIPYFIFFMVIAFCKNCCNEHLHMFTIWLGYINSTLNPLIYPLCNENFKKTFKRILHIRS

[12] = molecular target: Adenosine receptor A2a (Homo sapiens) (UniProt P29274); experiment: Activation of adenosine A2A receptor (unknown origin) at 1 uM relative to control
[13] = molecular target: Glucocorticoid receptor (Homo sapiens) (UniProt P04150); experiment: Activation of GR receptor (unknown origin) at 1 uM relative to control
[14] = molecular target: Androgen receptor (Homo sapiens) (UniProt P10275); experiment: Activation of Androgen receptor (unknown origin) at 1 uM relative to control
[15] = molecular target: Voltage-dependent N-type calcium channel subunit alpha-1B (Homo sapiens) (UniProt Q00975); experiment: Activation of Cav2.2 (unknown origin) at 1 uM relative to control
[16] = molecular target: NACHT, LRR and PYD domains-containing protein 3 (Mus musculus, UniProt Q8R4B8); experiment: Inhibition of NLRP3 inflammasome activation in LPS-activated mouse BMDM cells assessed as inhibition of nigericin induced IL-1beta secretion preincubated with LPS for 3 hrs followed by compound addition for 40 mins and further stimulated with nigericin for 40 mins by ELISA method; type: cell-based
NACHT, LRR and PYD domains-containing protein 3, sequence (Q8R4B8 whole entry, the tested form may be a part): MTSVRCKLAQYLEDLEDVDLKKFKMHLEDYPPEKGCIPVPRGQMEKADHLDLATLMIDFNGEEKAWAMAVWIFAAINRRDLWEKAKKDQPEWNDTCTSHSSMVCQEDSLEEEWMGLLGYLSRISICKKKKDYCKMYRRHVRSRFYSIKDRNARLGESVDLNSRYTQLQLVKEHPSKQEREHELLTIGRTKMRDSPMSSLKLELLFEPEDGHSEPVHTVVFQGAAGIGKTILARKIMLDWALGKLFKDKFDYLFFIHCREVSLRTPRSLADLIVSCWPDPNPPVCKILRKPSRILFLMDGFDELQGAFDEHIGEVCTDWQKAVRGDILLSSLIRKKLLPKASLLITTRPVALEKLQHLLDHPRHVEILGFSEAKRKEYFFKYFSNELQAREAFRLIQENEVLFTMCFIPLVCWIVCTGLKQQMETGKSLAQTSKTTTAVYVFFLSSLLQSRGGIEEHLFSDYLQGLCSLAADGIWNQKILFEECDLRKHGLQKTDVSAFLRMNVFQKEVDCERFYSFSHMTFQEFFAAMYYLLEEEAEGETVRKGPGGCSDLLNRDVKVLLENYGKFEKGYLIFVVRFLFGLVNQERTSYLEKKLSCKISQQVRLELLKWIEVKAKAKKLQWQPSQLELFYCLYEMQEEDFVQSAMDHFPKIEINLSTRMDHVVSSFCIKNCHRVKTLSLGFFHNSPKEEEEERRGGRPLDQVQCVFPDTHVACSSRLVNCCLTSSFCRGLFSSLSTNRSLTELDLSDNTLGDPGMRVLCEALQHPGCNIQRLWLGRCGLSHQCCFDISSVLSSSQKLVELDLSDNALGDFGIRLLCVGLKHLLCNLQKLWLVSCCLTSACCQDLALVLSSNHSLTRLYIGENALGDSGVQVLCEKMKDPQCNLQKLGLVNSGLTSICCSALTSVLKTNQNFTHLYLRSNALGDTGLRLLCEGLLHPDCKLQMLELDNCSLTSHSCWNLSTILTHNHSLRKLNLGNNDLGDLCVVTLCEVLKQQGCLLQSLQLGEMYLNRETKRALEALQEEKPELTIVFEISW

[17] = system: THP-1; experiment: Cytotoxicity against human THP-1 cells at 0.25 to 2 uM measured after 24 hrs by CCK-8 method; type: functional, cell-based; details: dose 0.25-2 µM
[18] = molecular target: NACHT, LRR and PYD domains-containing protein 3 (Mus musculus) (UniProt Q8R4B8); experiment: Inhibition of NLRP3 inflammasome activation in LPS/Nigericin induced mouse BMDM cells assessed as suppression of IL-1beta secretion preincubated with LPS for 3 hrs followed by compound addition for 40 mins and further stimulated with nigericin for 40 mins by Western blot analysis; type: cell-based; details: dose 0.25-1 µM, time 80.0 min
NACHT, LRR and PYD domains-containing protein 3 (Mus musculus), sequence (Q8R4B8 whole entry, the tested form may be a part): as above

[19] = molecular target: NACHT, LRR and PYD domains-containing protein 3 (Mus musculus) (UniProt Q8R4B8); experiment: Inhibition of NLRP3 inflammasome activation in LPS/Nigericin induced mouse BMDM cells assessed as suppression of caspase-1 secretion preincubated with LPS for 3 hrs followed by compound addition for 40 mins and further stimulated with nigericin for 40 mins by Western blot analysis; type: cell-based; details: dose 0.25-1 µM, time 80.0 min
[20] = molecular target: NACHT, LRR and PYD domains-containing protein 3 (Mus musculus) (UniProt Q8R4B8); experiment: Inhibition of NLRP3 inflammasome activation in LPS/Nigericin induced mouse BMDM cells assessed as effect on pro-casapase-1 expression at 0.25 to 1 uM preincubated with LPS for 3 hrs followed by compound addition for 40 mins and further stimulated with nigericin for 40 mins by Western blot analysis; type: cell-based; details: dose 0.25-1 µM, time 80.0 min
[21] = molecular target: NACHT, LRR and PYD domains-containing protein 3 (Mus musculus) (UniProt Q8R4B8); experiment: Inhibition of NLRP3 inflammasome activation in LPS/Nigericin induced mouse BMDM cells assessed as effect on ASC expression at 0.25 to 1 uM preincubated with LPS for 3 hrs followed by compound addition for 40 mins and further stimulated with nigericin for 40 mins by Western blot analysis; type: cell-based; details: dose 0.25-1 µM, time 80.0 min
[22] = molecular target: NACHT, LRR and PYD domains-containing protein 3 (Mus musculus) (UniProt Q8R4B8); experiment: Inhibition of NLRP3 inflammasome activation in LPS/nigericin induced mouse BMDM cells assessed as reduction in GSDMD-N expression at 0.25 to 1 uM preincubated with LPS for 3 hrs followed by compound addition for 40 mins and further stimulated with nigericin for 40 mins by Western blot analysis; type: cell-based; details: dose 0.25-1 µM, time 80.0 min
[23] = AUC (0 to t) in male C57BL/6 mouse at 30 mg/kg, ip measured upto 1440 mins by LC-MS/MS analysis; type: ADME, organism-based; details: in vivo
[24] = Cmax in male C57BL/6 mouse at 30 mg/kg, ip measured upto 1440 mins by LC-MS/MS analysis; type: ADME, organism-based; details: in vivo
[25] = Drug distribution in C57BL/6 mouse colon at 30 mg/kg, ip measured after 0.5 hrs by LC-MS/MS analysis; type: ADME, organism-based; details: read-out: Drug uptake
[26] = Drug distribution in C57BL/6 mouse colon at 30 mg/kg, ip measured after 8 hrs by LC-MS/MS analysis; type: ADME, organism-based; details: read-out: Drug uptake
[27] = Drug distribution in C57BL/6 mouse colon at 30 mg/kg, ip measured after 24 hrs by LC-MS/MS analysis; type: ADME, organism-based; details: read-out: Drug uptake
[28] = Drug distribution in C57BL/6 mouse plasma at 30 mg/kg, ip measured after 8 hrs by LC-MS/MS analysis; type: ADME, organism-based
[29] = system: THP-1; experiment: Inhibition of pyroptosis in LPS/nigericin induced PMA-differentiated human THP-1 cells assessed as reduction in red fluorescence production preincubated with LPS for 3 hrs followed by compound addition for 40 mins and further stimulated with nigericin for 40 mins by PI staining based inverted microscopy based analysis; type: functional, cell-based; details: dose 0.25-1 µM, time 80.0 min
[30] = system: Mus musculus; experiment: Anti-colitis activity against DSS-induced ulcerative colitis C57BL/6 mouse model assessed as improvement in body weight loss at 15 to 30 mg/kg, ip administered daily and measured upto 10 days; type: functional, organism-based; details: dose 15-30 mg/kg, time <= 10.0 day
[31] = system: Mus musculus; experiment: Anti-colitis activity against DSS-induced ulcerative colitis C57BL/6 mouse model assessed as reduction in DAI score at 15 to 30 mg/kg, ip administered daily and measured upto 10 days; type: functional, organism-based; details: dose 15-30 mg/kg, time <= 10.0 day
[32] = system: Mus musculus; experiment: Anti-colitis activity against DSS-induced ulcerative colitis C57BL/6 mouse model assessed as reduction in TNF-alpha level at 15 to 30 mg/kg, ip by ELISA method; type: functional, organism-based; details: dose 15-30 mg/kg
[33] = system: Mus musculus; experiment: Anti-colitis activity against DSS-induced ulcerative colitis C57BL/6 mouse model assessed as suppression of caspase-1 activation at 15 to 30 mg/kg, ip by Western blot analysis; type: functional, organism-based; details: dose 15-30 mg/kg

Cytochrome P450 2C9, sequence (P11712 whole entry): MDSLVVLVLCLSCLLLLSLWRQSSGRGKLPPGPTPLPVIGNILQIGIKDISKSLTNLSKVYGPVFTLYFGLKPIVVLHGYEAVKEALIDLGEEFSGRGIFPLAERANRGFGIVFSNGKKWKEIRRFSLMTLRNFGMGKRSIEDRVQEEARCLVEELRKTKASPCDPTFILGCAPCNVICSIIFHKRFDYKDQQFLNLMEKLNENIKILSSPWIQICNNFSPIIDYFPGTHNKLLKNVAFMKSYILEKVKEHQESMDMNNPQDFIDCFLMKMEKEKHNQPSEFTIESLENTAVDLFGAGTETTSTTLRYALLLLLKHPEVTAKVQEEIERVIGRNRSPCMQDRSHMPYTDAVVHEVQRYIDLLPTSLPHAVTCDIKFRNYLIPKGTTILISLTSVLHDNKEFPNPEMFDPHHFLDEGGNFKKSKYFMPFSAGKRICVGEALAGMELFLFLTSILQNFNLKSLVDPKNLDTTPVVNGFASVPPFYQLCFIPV

IC50 [1]: 5.8 µM
IC50 [2]: > 100 µM
IC50 [3]: > 100 µM
inhibition [4]: < 50%
inhibition [5]: < 50%
inhibition [6]: < 50%
inhibition [7]: < 50%
inhibition [8]: < 50%
inhibition [9]: < 50%
inhibition [10]: < 50%
Activity [11]: < 50%
Activity [12]: < 50%
Activity [13]: < 50%
Activity [14]: < 50%
Activity [15]: < 50%
IC50 [16]: 739 nM
inhibition [18]: Dose-Dependent Effect
inhibition [19]: Dose-Dependent Effect
Activity [20]: inactive
inhibition [21]: inactive
inhibition [22]: Active
AUC(0-t) at 24 h [23]: 16.8 ng·h/mL
Cmax [24]: 1.57 ng/mL
concentration at 0.5 h [25]: 12900 ng/g
concentration at 8 h [26]: 80.2 ng/g
concentration at 24 h [27]: 81.3 ng/g
concentration at 8 h [28]: 1.52 ng/mL
Structure (SMILES): C=C1C(=O)O[C@@H]2C[C@@]3(C)CC[C@@H](OC(=O)c4cnc(Cl)cc4Cl)C(=C)[C@@H]3C[C@H]12
Activity [17]: inactive
inhibition [29]: Active
Activity [30]: Active
Activity [31]: Active
Activity [32]: Active
Activity [33]: Active
